In ChEMBL document CHEMBL1144501, “Synthesis, characterization and biological activity of complexes of lanthanum(III) with 2-(1'-phenyl- 2'-carboxyl-3'-aza-n-butyl)-1,10-phenanthroline and 2-(1'-p-phenol-2'-carboxyl-3'-aza-n-butyl)-1,10-phenanthroline” (Bioorg Med Chem, 2007):

Tests used:
Format in all cases: cell-based
HL-60 = assay: Cytotoxicity against human HL60 cells after 72 hrs; details: HL-60, 72 h
[1] = Cytotoxicity against human BGC823 cells after 72 hrs; details: BGC-823, 72 h
[2] = Cytotoxicity against human Bel7402 cells after 72 hrs; details: Bel-7402, 72 h
[3] = Cytotoxicity against human PC-3MIE8 cells after 72 hrs; details: PC-3MIE8, 72 h
HeLa = assay: Cytotoxicity against human HeLa cells after 72 hrs
MDA-MB-435 = assay: Cytotoxicity against human MDA-MB-435 cells after 72 hrs; details: MDA-MB-435, 72 h

Measured: IC50

O=C(O)C(Cc1ccccc1)NCc1ccc2ccc3cccnc3c2n1 (configuration not stated)
> 100 µM: all assays above

O=C(O)C(Cc1ccc(O)cc1)NCc1ccc2ccc3cccnc3c2n1 (configuration not stated)
> 100 µM: all assays above
